# Entries after “also recorded” stand apart in the source; their conditions may differ.
# Key:
# RIP-Tag insulinoma [1] = assay: Immune cell infiltration in RIP-Tag insulinoma (immunofluorescence); type: in vivo, mice; settings: 2 and 5 μg daily i.v. for 5 days, vs control groups
# Method: Mice bearing RIP-Tag insulinoma at 25 weeks of age were treated with 2 and 5 μg TNF60 -CSG (in 100 μL) by daily intravenous injection for 5 days. FIG. 6 presents microscopic evaluation of CD4+ and CD8+ T cells and circulatory CD11b macrophages detected by immunofluorescence staining of tissue cross sections.
# [2] = tested on: RIP-Tag insulinoma and 4T1 breast carcinoma; assay: Tumour vessel perfusion (CD31:lectin ratio); type: in vivo, mice; settings: 2 μg/day × 5
# Method: The inventors then evaluated vessel perfusion in RIP-Tag insulinoma and 4T1. breast carcinoma from mice treated with TNFα-CSG (2 μg/day×5), as measured by CD31:lectin ratio following 10 min intravenous circulation of tomato green lectin.
# advanced insulinoma = assay: Survival of mice bearing advanced insulinoma; type: in vivo; settings: 5 μg daily i.v. for five days at 24 weeks of age
# Method: Survival studies were conducted using mice bearing advanced insulinoma, at 24 weeks of age, treated with 5 μg TNFα-CSG or 0.8 μg CSG daily for five days by intravenous injection.
# 4T1 breast carcinoma = assay: Tumour uptake of doxorubicin-micelles; type: in vivo, mice; settings: 2 μg i.v. daily for 5 days, then 100 μL of 1 mM doxorubicin-micelles
# Method: 4T1 breast carcinoma-bearing mice were treated with 2 μg TNFα-CSG or CSG control, peptide by intravenous injection, daily for 5 days. Mice were then injected with 100 μL of 1 mM doxorubicin-micelles (200 nm in size) and tissues including tumours, spleen and liver were collected for analysis.
# 4T1 tumours = assay: Tumour clearance, whole microscopic images of 4T1 tumours; type: in vivo, mice; settings: 10 μg for five days
# 4T1 tumour [3] = assay: Tumour uptake of Evans blue dye; type: in vivo, mice; settings: 2 μg i.v. for five days; Evans blue 30 min
# Method: As a result of the reduced tumour ECM content and increased tumour vessel perfusion (Example 4), the inventors then evaluated the ability of tumours treated with TNFα-CSG to take op various reagents. Mice bearing 4T1 tumour were treated with 2 μg TNFα-CSG or CSG control peptide by intravenous injection for five days. Following this, mice were intravenously injected with 100 μL, of 0.9% Evans blue solution and allowed to circulate for 30 min. Tumours were then harvested and photographed.
# RIP-Tag insulinoma [4] = assay: Tumour ECM content (collagen-1, laminin, nidogen-1); type: in vivo, mice; settings: 2 μg or 5 μg i.v. daily for five days
# Method: As evidenced by analysis of the ECM components collagen-1, laminin and nidogen-1, intravenous injection of TNFα-CSG at a dose of 2 μg or 5 μg daily for five days to mice having a RIP-Tag insulinoma, specifically reduces tumour ECM content (FIG. 9).
# insulinoma = assay: Tumour uptake of iron oxide micelles (MRI); type: in vivo, mice; settings: 2 μg dose daily for five days; 6 hr circulation
# Method: Reduced tumour ECM and stiffness, as well as improved perfusion was also shown to result in enhanced tumour uptake of a nano-imaging contrast agent. Specifically, insulinoma-bearing mice were treated with 2-10 μg TNFα-CSG or CSG control peptide by intravenous infection daily for five days. Following this, mice were intravenously injected with 100 μL of 1 mM iron oxide (IO) micelles (30 nm diameter). Tumours were harvested after 6 hr circulation and imaged by MRI and microscopic analysts of tissues mounted in 2% agarose. […] This accumulation was confirmed by immunostaining analysis of tissue cross sections using anti-FITC antibody.
# [5] = tested on: 4T1 breast carcinoma and RIP-Tag insulinoma; assay: Tumour stiffness by optical coherence tomography/micro-elastography; type: in vivo, mice; settings: 2 μg/day × 4 total injections
# [6] = tested on: macrophage cell line J774; assay: Bioactivity: J774 macrophages on matrigel attached with TNFα-CSG; type: cell-based; settings: 0.1 mmol on matrigel, 1 to 16 hrs
# Method: Bioactivity of TNFα-CSG was assessed in vitro, specifically by incubating macrophage cell, line, J774, on matrigel attached with TNFα-CSG (0.1 mmol).
# hepatocellular carcinoma = assay: Immune cell infiltration in hepatocellular carcinoma (FACS); type: in vivo, mice; settings: 2 μg daily i.v. for 5 days, healthy livers
# Method: Mice bearing hepatocellular carcinoma at 10 weeks of age were treated with 2 μg TNFα-CSG or control CSG peptide (in 100 μL) by daily intravenous injection for 5 days. The experiment was also conducted on mice with normal, healthy livers, FACS quantification of CD4+ and CD8+ T cells and infiltrating macrophages (CD11b+/CD68+) in whole tumours is shown in FIG. 7. Quantitative analysis of these tumours show at least 3 fold increase in immune cell infiltration compared to CSG-treated tumours (P<0.05).
# atherosclerotic plaque = assay: TNFα-CSG therapy of aging ApoE null mice; settings: for ALT / AST / Troponin: plasma, median (interquartile range)
# Method: Aging ApoE null mice were treated with 10 μg TNFα-CSG or 0.8 μg CSG peptide daily for five days by intravenous injection. Tissue, including aorta and plasma, were collected from euthanised animals at 70 weeks of age. Plasma samples were collected after 1 and 10 weeks of therapy and assessed for markers of (i) circulating cholesterol (total cholesterol, HDL and LDL), (ii) cardiac necrosis (troponin) and (iii) liver damage (alanine transaminase, ALT and aspartate transaminase, AST).
# [7] = tested on: RIP-Tag insulinoma and hepatocellular carcinoma; assay: In vivo binding specificity of fluorescein-labelled TNFα-CSG and native TNFα; parameters: species or system mice; settings: 130 μg i.v., 30 min circulation
# Method: Binding specificity of TNFα-CSG to tumours in vivo was assessed by detecting fluorescein-labelled TNFα-CSG and native unconjugated TNFα following 130 μg intravenous injection (30 min circulation).
# 4T1 tumour [8] = assay: Anti-tumorigenic effect on 4T1 tumour growth; type: in vivo, mice; settings: 2 μg, 6 injections in 2 weeks
# Method: The inventors have also discovered that TNFα-CSG has anti-tumorigenic effects, as evidenced by reduced tumour growth and reduced cell proliferation. 4T1 tumour-bearing mice were treated with 2 μg TNFα-CSG or control CSG peptide 4 days after inoculation with 5×10^5 4T1 cells. Each mouse received a total of 6 injections in 2 weeks.
# [9] = Toxicity of repeated intravenous injections; type: in vivo; settings: 0.5-10 μg daily i.v., total of 8 injections
# Method: To determine potential toxicity effects of TNFα-CSG, the inventors then administered TNFα-CSG intravenously to mice (n=6) at a dose ranging from 0.5-10 μg daily, to a total of 8 injections. TNFα-CSG is non-toxic at these doses and frequency.
substance,measurement,setting,value
TNFα-CSG: Mature murine TNFα (SEQ ID NO:6) with C-terminal conjugated peptide CSGRRSSKC connected via a GGG linker; recombinant fusion protein,"immune cell infiltration (CD4+, CD8+ T cells, CD11b macrophages)",RIP-Tag insulinoma [1],significant increase in immune cell infiltration
same,vessel width vs control treated tumours,[2],significantly wider
same,CD31:lectin ratio,[2]; 10 min i.v. circulation of lectin,~1
same,survival compared to CSG-treated mice,advanced insulinoma,significantly enhanced
same,doxorubicin (autofluorescence) in treated tumours,4T1 breast carcinoma,strong traces of doxorubicin
same,tumour clearance (hypoxia marker staining),4T1 tumours,large areas at the centre of the tumour devoid of tumour cells
same,tumour permeability to Evans blue dye vs control-treated tumours,4T1 tumour [3],more permeable to Evans blue dye
same,ECM content in normal pancreas,RIP-Tag insulinoma [4],remained unaltered
same,"tumour ECM content (collagen-1, laminin, nidogen 1, excluding basement membrane)",RIP-Tag insulinoma [4],significant reduction in ECM content
same,accumulation of FITC-labelled IO micelles in tumours (MRI T2* and T2 relaxation),insulinoma,increased accumulation of FITC-labelled IO micelles
same,loss of signal (T2 relaxation time),insulinoma,significantly lower
same,tumour stiffness,[5],below 100 kPa
same,tissue stiffness (stiffness >100 kPa) and stiffness variance,[5]; frequency distribution,significantly reduced
same,protease secretion by J774 cells,[6],secretion of MMP-2 and MMP-9
same,effect on immune cell infiltration in normal liver,hepatocellular carcinoma,no effect on normal liver
same,plaque burden (plaque positive area),atherosclerotic plaque; 10 μg daily i.v. for five days,significantly reduced plaque burden
same,circulating HDL levels,atherosclerotic plaque; 10 weeks after administration,increase in circulating HDL levels; also recorded: significantly increased
same,circulating LDL,atherosclerotic plaque; 10 weeks after administration,reduction in LDL
same,plasma LDL:HDL ratio,atherosclerotic plaque; 10 weeks after therapy,reduced
same,plasma LDL:HDL ratio,atherosclerotic plaque; after 1 week of therapy,increased
same,"activated endothelia (CD31+, endoglin+) in plaque intima","atherosclerotic plaque; mouse, in vivo",increased the expression of activate endothelia
same,macrophage content (CD11b+) in plaque,"atherosclerotic plaque; mouse, in vivo",reduced macrophage content
same,"ECM in plaque intima (collagen I, collagen IV, laminin)","atherosclerotic plaque; mouse, in vivo, iv",degraded ECM in plaque intima
same,cardiac or liver toxicity,"atherosclerotic plaque; plasma troponin, ALT, AST",did not elevate cardiac or liver toxicity
same,ALT,atherosclerotic plaque; 1 week,33.3 (15.4-115.5) U/L
same,AST,atherosclerotic plaque; 1 week,106 (74.0-195.5) U/L
same,Troponin,atherosclerotic plaque; 1 week,15.3 (10.7-30.2) ng/L
same,ALT,atherosclerotic plaque; 10 weeks,26.0 (18.5-79.8) U/L
same,AST,atherosclerotic plaque; 10 weeks,81.5 (52.3-184.3) U/L
same,Troponin,atherosclerotic plaque; 10 weeks,15.1 (5.7-24.0) ng/L
same,binding to tumour tissue in vivo,[7],specifically targeted
same,binding to normal tissues in vivo,[7]; normal tissues,"limited binding to normal pancreas, liver, heart, and kidney"
same,ratio of cytotoxic T cells to immune suppressor T cells,4T1 tumour [8],significantly higher ratio of cytotoxic T cells to immune suppressor T cells
same,tumour cell proliferation (Ki67+),4T1 tumour [8],significant reduction in tumour cell proliferation
same,tumour size and weight,4T1 tumour [8]; vs control CSG peptide,significantly reduced
same,toxicity,[9],non-toxic

# Source: patent publication US20190022239A1, “NOVEL BIOMOLECULE CONJUGATES AND USES THEREFOR” (The University of Western Australia, priority 2016, published 2019)
